The text below walks through data of publication PMC2275798 (The Journal of biological chemistry, 2007).

Assay [1] concerns the target T1, LSECtin carbohydrate-recognition domain (CRD) (Homo sapiens, UniProt Q6UXB4).
T1 sequence (Q6UXB4 160-293): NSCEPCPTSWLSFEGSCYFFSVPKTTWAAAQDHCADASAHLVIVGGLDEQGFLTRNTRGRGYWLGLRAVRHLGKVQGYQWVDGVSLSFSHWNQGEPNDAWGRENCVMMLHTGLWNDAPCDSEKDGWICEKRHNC
It counts as binding.

Assay [2] addresses T1, LSECtin carbohydrate-recognition domain (CRD). In kind it is binding. The source holds these as a separate data set.
Assay [3] deals with T2, Ebola virus surface glycoprotein GP1 (Fc fusion) GP1 (Zaire ebolavirus, UniProt Q05320).
T2 chain: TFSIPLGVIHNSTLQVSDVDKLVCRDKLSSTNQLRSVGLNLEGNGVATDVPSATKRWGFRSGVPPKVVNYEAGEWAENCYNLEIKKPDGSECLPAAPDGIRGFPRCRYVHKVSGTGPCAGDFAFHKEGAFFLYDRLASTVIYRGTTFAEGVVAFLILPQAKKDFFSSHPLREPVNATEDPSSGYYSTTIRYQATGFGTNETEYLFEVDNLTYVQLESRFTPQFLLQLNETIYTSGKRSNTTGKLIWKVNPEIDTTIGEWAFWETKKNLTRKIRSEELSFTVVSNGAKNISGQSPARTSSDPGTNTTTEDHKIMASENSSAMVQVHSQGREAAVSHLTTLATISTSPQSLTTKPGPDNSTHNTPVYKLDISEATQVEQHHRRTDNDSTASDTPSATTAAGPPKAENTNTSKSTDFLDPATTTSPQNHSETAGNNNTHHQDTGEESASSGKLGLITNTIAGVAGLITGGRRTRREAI

For `CC(=O)N[C@H]1[C@H](O[C@@H]2C(O)O[C@H](CO)[C@@H](O)[C@@H]2O)O[C@H](CO)[C@@H](O)[C@@H]1O` (stereo partly drawn) [GlcNAcβ1-2Man], affinity in assay [1] was put at a Ki of 3500 nM. This counts as single-digit micromolar. Turning to `OC[C@H]1O[C@H](OC[C@H]2OC(O)[C@@H](O)[C@@H](O[C@H]3O[C@H](CO)[C@@H](O)[C@H](O)[C@@H]3O)[C@@H]2O)[C@@H](O)[C@@H](O)[C@@H]1O` (stereo partly drawn) [branched trimannose oligosaccharide], in assay [2], the KI result is given as “The branched trimannose oligosaccharide, which forms the core of the complex glycans”.

B1: LSECtin CRD (protein)
chain: FEGSCYFFSVPKTTWAAAQDHCADASAHLVIVGGLDEQGFLTRNTRGRGYWLGLRAVRHLGKVQGYQWVDGVSLSFSHWNQGEPNDAWGRENCVMMLHTGLWNDAPCDSEKDGWIC
The molecule B1 came in with a Kd in assay [3] of 3.7 nM.
